Experimental data published in PubChem BioAssay AID248 (DTP/NCI, 2004).
Values joined by “and” are separate entries in the source; they are usually repeats but may differ in a detail not shown here. Identical values can stand only once. Toxic doses and inconclusive results are not listed. Cut-off read from the data, not from the text of the source: active = T/C of 150% or more; inactive = T/C below 125%.

Test system: L1210 leukemia ip in BDF1 mice, survival T/C
Test: NCI In Vivo Anticancer Drug Screen. Data for tumor model L1210 Leukemia (intraperitoneal) in B6D2F1 (BDF1) mice
Conditions: endpoint: mean survival time, higher = longer survival
Summary of the method: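 Tumor cells were implanted, animals were treated, and survival was followed. The result divides the treated measurement by the vehicle-control measurement.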

[1] = dose: 100.0 mg/kg/injection, schedule: Q04DX003 (ip), vehicle: saline
[2] = dose: 200.0 mg/kg/injection, schedule: Q04DX003 (ip), vehicle: saline
[3] = dose: 100.0 mg/kg/injection, schedule: Q01DX001 (ip), vehicle: carboxymethylcellulose (CMC)
[4] = dose: 400.0 mg/kg/injection, schedule: Q01DX001 (ip), vehicle: carboxymethylcellulose (CMC)
[5] = dose: 100.0 mg/kg/injection, schedule: Q01DX009 (ip), vehicle: saline with Tween-80
[6] = dose: 200.0 mg/kg/injection, schedule: Q01DX009 (ip), vehicle: saline with Tween-80
[7] = dose: 400.0 mg/kg/injection, schedule: Q01DX009 (ip), vehicle: saline with Tween-80
[8] = dose: 400.0 mg/kg/injection, schedule: Q04DX003 (ip), vehicle: saline
[9] = dose: 200.0 mg/kg/injection, schedule: Q01DX001 (ip), vehicle: saline with Tween-80
[10] = dose: 400.0 mg/kg/injection, schedule: Q01DX001 (ip), vehicle: saline with Tween-80
[11] = dose: 100.0 mg/kg/injection, schedule: Q01DX001 (ip), vehicle: saline
[12] = dose: 200.0 mg/kg/injection, schedule: Q01DX001 (ip), vehicle: saline
[13] = dose: 400.0 mg/kg/injection, schedule: Q01DX001 (ip), vehicle: saline
[14] = dose: 25.0 mg/kg/injection, schedule: Q04DX002 (ip), vehicle: Klucel (hydroxypropylcellulose) (HPC)
[15] = dose: 50.0 mg/kg/injection, schedule: Q04DX002 (ip), vehicle: Klucel (hydroxypropylcellulose) (HPC)
[16] = dose: 100.0 mg/kg/injection, schedule: Q04DX002 (ip), vehicle: Klucel (hydroxypropylcellulose) (HPC)

Measured: T/C

CCCCCCCCCCCCCCCC[N+](C)=C(SC)c1ccccc1OC
inactive: dose: 0.7 mg/kg/injection, schedule: Q01DX009 (ip), vehicle: Klucel (hydroxypropylcellulose) (HPC) 101 % of control | dose: 1.5 mg/kg/injection, schedule: Q01DX009 (ip), vehicle: Klucel (hydroxypropylcellulose) (HPC) 104 % of control | dose: 1.5 mg/kg/injection, schedule: Q04DX003 (ip), vehicle: Klucel (hydroxypropylcellulose) (HPC) 95 % of control | dose: 3.0 mg/kg/injection, schedule: Q01DX009 (ip), vehicle: Klucel (hydroxypropylcellulose) (HPC) 104 % of control | dose: 3.0 mg/kg/injection, schedule: Q04DX003 (ip), vehicle: Klucel (hydroxypropylcellulose) (HPC) 97 % of control

CCOC(=O)c1cnc(C)nc1Nc1ccccc1Cl
inactive: dose: 50.0 mg/kg/injection, schedule: Q04DX003 (ip), vehicle: saline 105 % of control | [1] 104 % of control | [2] 98 % of control and 108 % of control

COc1ccc2nc3cc(Cl)ccc3c(NCCCSCCCl)c2n1
inactive: dose: 2.0 mg/kg/injection, schedule: Q01DX009 (ip), vehicle: saline 116 % of control | dose: 8.0 mg/kg/injection, schedule: Q01DX009 (ip), vehicle: saline 109 % of control

O=C1c2ccccc2C(C2c3ccccc3C(=O)c3ccccc32)c2ccccc21
inactive: dose: 50.0 mg/kg/injection, schedule: Q01DX001 (ip), vehicle: carboxymethylcellulose (CMC) 89 % of control | [3] 89 % of control | [4] 86 % of control

CCC(=O)NCC1(c2ccccc2)CCN(CCCC(=O)c2ccc(F)cc2)CC1
inactive: dose: 25.0 mg/kg/injection, schedule: Q01DX009 (ip), vehicle: saline 121 % of control | dose: 50.0 mg/kg/injection, schedule: Q01DX009 (ip), vehicle: saline 113 % of control | dose: 100.0 mg/kg/injection, schedule: Q01DX009 (ip), vehicle: saline 121 % of control

CC(=O)OCc1ccc(Cl)c(Cl)c1
inactive: dose: 50.0 mg/kg/injection, schedule: Q01DX009 (ip), vehicle: saline sonified 100 % of control | dose: 100.0 mg/kg/injection, schedule: Q01DX009 (ip), vehicle: saline sonified 100 % of control | dose: 100.0 mg/kg/injection, schedule: Q04DX003 (ip), vehicle: saline sonified 101 % of control | dose: 200.0 mg/kg/injection, schedule: Q01DX009 (ip), vehicle: saline sonified 97 % of control | dose: 200.0 mg/kg/injection, schedule: Q04DX003 (ip), vehicle: saline sonified 107 % of control | dose: 400.0 mg/kg/injection, schedule: Q04DX003 (ip), vehicle: saline sonified 106 % of control

CCC(C)C(C)(CO)CO (stereo unspecified)
inactive: [5] 102 % of control | [1] 90 % of control | [6] 88 % of control | [2] 93 % of control | [7] 89 % of control | [8] 97 % of control

CCCCCCCCCCCCCCCCCC[N+]1(C)CCOCC1
inactive: dose: 6.25 mg/kg/injection, schedule: Q01DX009 (ip), vehicle: Klucel (hydroxypropylcellulose) (HPC) 94 % of control | dose: 12.5 mg/kg/injection, schedule: Q01DX009 (ip), vehicle: Klucel (hydroxypropylcellulose) (HPC) 100 % of control | dose: 25.0 mg/kg/injection, schedule: Q01DX009 (ip), vehicle: Klucel (hydroxypropylcellulose) (HPC) 97 % of control

NCC1CCCC1N (stereo unspecified)
inactive: dose: 18.8 mg/kg/injection, schedule: Q01DX009 (ip), vehicle: saline 102 % of control | dose: 37.5 mg/kg/injection, schedule: Q01DX009 (ip), vehicle: saline 102 % of control | dose: 75.0 mg/kg/injection, schedule: Q01DX009 (ip), vehicle: saline 97 % of control

O=C(NC(=S)Nc1cc(Cl)ccc1Cl)c1ccc(Cl)cc1Cl
inactive: dose: 100.0 mg/kg/injection, schedule: Q01DX001 (ip), vehicle: saline with Tween-80 92 % of control | [5] 94 % of control and 97 % of control | dose: 100.0 mg/kg/injection, schedule: Q04DX002 (ip), vehicle: saline with Tween-80 87 % of control and 90 % of control | dose: 100.0 mg/kg/injection, schedule: Q04DX003 (ip), vehicle: saline with Tween-80 97 % of control | [9] 94 % of control | [6] 93 % of control and 97 % of control | dose: 200.0 mg/kg/injection, schedule: Q04DX002 (ip), vehicle: saline with Tween-80 97 % of control and 87 % of control | dose: 200.0 mg/kg/injection, schedule: Q04DX003 (ip), vehicle: saline with Tween-80 92 % of control | [10] 94 % of control | [7] 103 % of control and 105 % of control | dose: 400.0 mg/kg/injection, schedule: Q04DX002 (ip), vehicle: saline with Tween-80 93 % of control and 101 % of control | dose: 400.0 mg/kg/injection, schedule: Q04DX003 (ip), vehicle: saline with Tween-80 95 % of control

O=C(NCc1ccc(Cl)c(Cl)c1)Nc1ccccc1Cl
inactive: dose: 100.0 mg/kg/injection, schedule: Q01DX009 (ip), vehicle: Klucel (hydroxypropylcellulose) (HPC) 97 % of control | dose: 200.0 mg/kg/injection, schedule: Q01DX009 (ip), vehicle: Klucel (hydroxypropylcellulose) (HPC) 100 % of control | dose: 400.0 mg/kg/injection, schedule: Q01DX009 (ip), vehicle: Klucel (hydroxypropylcellulose) (HPC) 103 % of control

Oc1ccc2c(c1)Cc1cc3ccccc3nc1-2
inactive: dose: 50.0 mg/kg/injection, schedule: Q01DX001 (ip), vehicle: saline 98 % of control | [11] 95 % of control | [12] 97 % of control | [13] 93 % of control

CCOC(OCC)c1nc(NC(C)=O)[nH]c(=O)c1CCCCc1ccccc1
inactive: [9] 88 % of control | [10] 91 % of control

CCCCCCP(=O)(CCCC)CCCC
inactive: [14] 94 % of control | [15] 109 % of control | [16] 103 % of control and 109 % of control

O=C(NCOC(c1ccccc1)c1ccccc1)c1cccnc1
inactive: [1] 89 % of control | [2] 86 % of control | [8] 92 % of control

O=C1CCN(S(=O)(=O)c2ccccc2)c2ccccc21
inactive: [11] 94 % of control | [12] 94 % of control | [13] 92 % of control

CCOC(=O)C(C#N)C(C)(C[N+](=O)[O-])C1CC1 (stereo unspecified)
inactive: dose: 0.78 mg/kg/injection, schedule: Q04DX003 (ip), vehicle: saline with Tween-80 96 % of control | dose: 1.56 mg/kg/injection, schedule: Q04DX003 (ip), vehicle: saline with Tween-80 101 % of control | dose: 3.13 mg/kg/injection, schedule: Q04DX003 (ip), vehicle: saline with Tween-80 97 % of control

CC(SS(=O)(=O)O)C(N)=NCc1ccccc1 (stereo unspecified)
inactive: [14] 94 % of control | [15] 108 % of control | [16] 98 % of control

CC12CCCC(O)(C1)NC(=O)C2C#N (stereo unspecified)
inactive: [3] 102 % of control | dose: 200.0 mg/kg/injection, schedule: Q01DX001 (ip), vehicle: carboxymethylcellulose (CMC) 97 % of control | [4] 94 % of control

c1ccc2nc3c(cc2c1)NCC3
inactive: dose: 100.0 mg/kg/injection, schedule: Q01DX001 (ip), vehicle: Klucel (hydroxypropylcellulose) (HPC) 95 % of control | dose: 200.0 mg/kg/injection, schedule: Q01DX001 (ip), vehicle: Klucel (hydroxypropylcellulose) (HPC) 97 % of control | dose: 400.0 mg/kg/injection, schedule: Q01DX001 (ip), vehicle: Klucel (hydroxypropylcellulose) (HPC) 109 % of control

O=C(O)CCCNCc1cc(=O)[nH]c(=O)[nH]1
inactive: [1] 101 % of control

CC(=O)NNC(=O)c1cnccn1
inactive: dose: 6.25 mg/kg/injection, schedule: Q04DX003 (ip), vehicle: saline 100 % of control | dose: 12.5 mg/kg/injection, schedule: Q04DX003 (ip), vehicle: saline 97 % of control | dose: 24.0 mg/kg/injection, schedule: Q04DX003 (ip), vehicle: saline 97 % of control | dose: 25.0 mg/kg/injection, schedule: Q01DX009 (ip), vehicle: water 95 % of control and 98 % of control | dose: 48.0 mg/kg/injection, schedule: Q04DX003 (ip), vehicle: saline 102 % of control | dose: 50.0 mg/kg/injection, schedule: Q01DX009 (ip), vehicle: water 97 % of control and 102 % of control | dose: 100.0 mg/kg/injection, schedule: Q01DX009 (ip), vehicle: water 112 % of control and 123 % of control | dose: 200.0 mg/kg/injection, schedule: Q01DX001 (ip), vehicle: water 103 % of control | dose: 200.0 mg/kg/injection, schedule: Q01DX009 (ip), vehicle: water 116 % of control and 118 % of control
